Series [1] relates to AGS human gastric cancer cell line with KRAS G12D mutation. Description: Cell proliferation inhibition experiment, 3D CellTiter-Glo, AGS. The series is classed as cell-based. Conditions: AGS cells, 3D spheroid, 5 days. From the text: (§1) AsPC-1 was purchased from ATCC, Article No.: CRL-1682; AGS was purchased from ATCC, Article No.: CRL-1739; RPMI1640 was purchased from Gibco, Article No.: 11875-093 2235123; F12K was purchased from Gibco, Article No.: 21127-022; FBS was purchased from Gibco, Article No.: 10099-141C; the trypsin (containing EDTA) was purchased from Gibco, Article No.: 25200-072; CellTiter Glo-3D was purchased from Progema, Article No.: G9683; the 384-well spheroid plate was purchased from Corning, Article No.: 3830; the white-bottom opaque 384-well plate was purchased from Corning, Article No.: 3570; the cell counter was purchased from CHEMOMETEC, model: NC-200; the microplate reader was purchased from PerkinElmer, model: Envison;
(§2) AsPC-1, an endogenous human pancreatic cancer cell AsPC-1 with KRAS^G12D mutation, was cultured in RPMI-1640 medium containing 10% FBS. AGS, a human gastric cancer cell line with KRAS^G12D mutation, was cultured in F-12K medium containing 10% FBS. Cells in logarithmic growth period were digested with trypsin (containing EDTA), collected and counted. 800 AsPC-1 cells/well or 400 […] were inoculated in a 384-well spheroid plate, and cultured overnight in an incubator with 5% CO2 to establish a 3D cell model. 1000× compound stock solutions with gradient concentrations of 3.16 times were prepared with DMSO, and 100-fold diluted to 10× compound stock solutions with the culture medium. The 10× compound stock solution was added to each cell culture well on the second day after cell inoculation, to give a final concentration of 1× and DMSO content of 0.1%. DMSO was used as the control, and the culture medium was used as the blank. After the compound was added, the cells were cultured for 5 days. 30 μl CellTiter-Glo working solution was added to each well, and mixed uniformly. The cells were incubated for 30 min, and allowed to stand at room temperature for 30 min. 40 μl of the mixture was transferred to a white-bottom opaque 384-well plate, and the luminescence was read on a microplate reader. The inhibition rate on cell proliferation was calculated by a formula: IR (%)=(RLU of control−RLU of compound)/(RLU of control−RLU of blank)×100%. The gradient concentrations of the compound and the corresponding inhibition rates were fitted by using XLFit four-parameter method, and the IC50 value was calculated. […] The results of some exemplary compounds are shown in Table 2 below (—means not tested).
Background: In ATP-based viability assays light output follows the ATP content of the culture.

Series [2] is described as follows: Pharmacokinetic evaluation test in mice.
Protocol: Test objective: Male CD-1 mice were used as test animals. The drug concentrations in plasma of mice at various times were determined by LC/MS/MS after intravenous and oral administration of the test compounds. The pharmacokinetic behavior of the test compounds in mice was studied and their pharmacokinetic characteristics were evaluated.
Test methods: test animals: 60 healthy adult male CD-1 mice, aged 6-8 weeks and weighing about 30 g, and divided into 10 groups, including IV groups (intravenous injection group, five groups), with 6 mice in each group; and PO groups (oral administration group, five groups), with 6 mice in each group.
Preparation of drug solution: IV group: Taking 10 mL sample solution as an example, 2 mg sample was weighed, 0.5 mL DMSO and 1 mL Solutol HS 15 were sequentially added, and then 8.5 mL 6% HP-β-CD was added, and stirred ultrasonically to obtain a clear solution of 0.2 mg/mL.
PO group 1: Taking 10 mL sample solution as an example, 10 mg sample was weighed, 0.5 mL DMSO and 1 mL Solutol HS 15 were sequentially added, and then 8.5 mL 6% HP-β-CD was added, and stirred ultrasonically to obtain a 1 mg/mL solution.
PO group 2: A 3 mg/mL solution of the sample was prepared according to the preparation method for PO group 1.
Administration: After overnight fasting, the mice in the IV group were administered with a volume of 5 mL/kg at a dose of 1 mg/kg.
PO group 1: The mice were administered with a volume of 10 mL/kg at a dose of 10 mg/kg.
PO group 2: The mice were administered with a volume of 10 mL/kg at a dose of 30 mg/kg.
Experimental operations: Male CD-1 mice in the intravenous injection group and oral administration group were given the test compound, respectively. After that, 50 μl of blood was periodically collected into a K2EDTA anticoagulation tube at 0.0833, 0.25, 0.5, 1, 2, 4, 6, 8 and 24 hrs, and the plasma was separated by centrifugation at 4° C. and 8000 rpm for 15 min. The plasma was stored in dry ice at −80° C. 4 hrs after administration, the animals were allowed to free access to food. The contents of the test compounds in plasma of mice after intravenous and oral administration were determined by LC/MS/MS. The linear range of the method was 1-3000 ng/ml. The plasma samples were treated with acetonitrile to precipitate the protein and then analyzed.
Series [3] has as its system AsPC-1 human pancreatic cancer cell with KRAS G12D mutation. Description: Cell proliferation inhibition experiment, 3D CellTiter-Glo, AsPC-1. The series is classed as cell-based. Conditions: AsPC-1 cells, 3D spheroid, 5 days.
From the text: as §1, §2

The test system of another series is AGS p-ERK. Description: Cell assay for p-ERK (HTRF, Advance ERK phospho-T202/Y204 kit). The series is classed as cell-based, human. As to conditions: AGS cells (KRAS G12D), 3 hrs with compound, inhibition of p-ERK level. The protocol: AGS was purchased from ATCC, Article No.: CRL-1739; F12K was purchased from Gibco, Article No.: 21127-022; FBS was purchased from Gibco, Article No.: 10099-141C; the trypsin (containing EDTA) was purchased from Gibco, Article No.: 25200-072; DMSO was purchased from VWRAMRESCO, Article No.: 0231-500ML; the 96-well cell culture plate was purchased from Corning, Article No.: 3599; the white-bottom opaque 96-well plate was purchased from Cisbio, Article No.: 66PL96025; Advance ERK phospho-T202/Y204 kit was purchased from Cisbio, Article No.: 64AERPEH; the cell counter was purchased from CHEMOMETEC, model: NC-200; the microplate reader was purchased from PerkinElmer, model: Envison.
AGS, an endogenous human gastric adenocarcinoma cell line with KRAS^G12D mutation, was cultured in F12K+10% FBS medium. On the first day of the experiment, cells in logarithmic growth period were digested with trypsin (containing EDTA), collected and counted, and about 20,000 cells/well were inoculated in a 96-well cell culture plate and cultured overnight in an incubator with 5% CO2. 1000× compound stock solutions with gradient concentrations of 3.16 times were prepared with DMSO, and 200-fold diluted to 5× compound stock solutions with the above culture medium. The 5× compound stock solution was added to each cell culture well on the second day after cell inoculation, to give a final concentration of 1× and DMSO content of 0.1%. DMSO was used as experimental control. After adding the compound, the cells were continuously cultured for 3 hrs. Then, the culture medium in the well was removed, and 50 μl/well of cell lysis buffer (from Advanced ERK phospho-T202/Y204 kit, the same hereinafter) was added, and mixed uniformly. The cells were cultured for 30 min. Then 16 μl of the mixture was transferred to a white-bottom opaque 96-well plate, and 16 μl of the cell lysis buffer was added to an additional well and used as a blank. After that, 4 μl of p-ERK HTRF antibody mixed solution (from Advanced ERK Phos Pho-T202/Y204 Kit) was added to each well. After incubation for 4 hrs, the fluorescence value (RLU) of HTRF was read on a microplate reader. The inhibition rate of the compound on p-ERK level was calculated by the formula IR (%)=(RLU of control−RLU of compound)/(RLU of control−RLU of blank)×100%. The compound concentration and the corresponding inhibition rate on p-ERK level in the cells were fitted by using Prism 8 four-parameter method, and the IC50 value was calculated.
On the technique in general: TR-FRET usually uses a lanthanide donor and a delayed reading to cut background.

[4] abbreviates: male, CD-1, mouse, plasma, po, 10 mg/kg.

As to `C#Cc1c(F)ccc2cc(O)cc(-c3nc4c5c(nc(OC[C@@]67CCCN6C[C@H](F)C7)nc5c3F)N3C[C@H]5CC[C@H](N5)[C@H]3CO4)c12` [Z131-1, 5-ethynyl-6-fluoro-4-((5aS,6S,9R)-1-fluoro-12-(((2R,7aS)-2-fluorotetrahydro-1H-pyrrolizin-7a(5H)-yl)methoxy)-5a,6,7,8,9,10-hexahydro-5H-4-oxo-3,10a,11,13,14-pentaaza-6,9-methanonaphtho[1,8-ab]hepten-2-yl)naphthalen-2-ol], the IC50 (in general, the point on the concentration scale where inhibition reaches its midpoint) in series [1] is 2.53 nM; in series [3], 32.8 nM; with AGS p-ERK it was 1.58 nM. Further, in series [2] (PO group, 10 mpk, male CD-1 mice), the “F (%) bioavailability” value was found to be 0.9%. Further, the “AUClast” value in series [2] (PO group, 10 mpk, male CD-1 mice, plasma) came to 40.4 ng·h/mL.

With `CCc1cccc2cc(O)cc(-c3nc4c5c(nc(OC[C@@]67CCCN6C[C@H](F)C7)nc5c3F)N3C[C@H]5CC[C@H](N5)[C@H]3CO4)c12` [Z140-1, 5-ethyl-4-((5aS,6S,9R)-1-fluoro-12-(((2R,7aS s)-2-fluorotetrahydro-1H-pyrrolizin-7a(5H)-yl)methoxy)-5a,6,7,8,9,10-hexahydro-5H-4-oxa-3,10a,11,13,14-pentaaza-6,9-methanonaphtho[1,8-ab]hepten-2-yl)naphthalen-2-ol], in series [2] (setting [4]), the AUC(0-t) – broadly, the area under the concentration-time curve up to a stated or last time point – is 42.1 ng·h/mL and the bioavailability (commonly the share of a dose that reaches the circulation, judged against a reference dose that is usually intravenous) was 2.33%.

As for “(5S,5aS,6S,9R)-12-((2,6-dimethyltetrahydro-1H-pyrrolizin-7a(5H)-methoxy)-2-(8-ethynyl-6-fluoronaphthalen-1-yl)-1-fluoro-5-methyl-5a,6,7,8,9,10-hexahydro-5H-4-oxa-3,10a,11,13,14-pentaaza-6,9-methanonaphtho[1,8-ab]heptene [Z551]”, the IC50 came out at 45.4 nM in series [1], 170 nM in series [3] and 61 nM with AGS p-ERK.

With `C#Cc1cccc2cc(N)cc(-c3nc4c5c(nc(OCC6(CN7CCC(=C(F)F)C7)CC6)nc5c3F)N3C[C@H]5CC[C@H](N5)[C@H]3[C@H](C)O4)c12` [Z744], the IC50 in series [1] (Homo sapiens, 120 h) was determined as 2.86 nM; in series [3] (Homo sapiens, ASPC1, 120 h), 1.99 nM; in the series on AGS p-ERK (Homo sapiens) it was 0.51 nM.

Turning to `[2H]C([2H])([2H])[C@@H]1Oc2nc(-c3cc(N)cc4cccc(C#C)c34)c(F)c3nc(OC[C@@]45CCCN4CC(=C(F)F)C5)nc(c23)N2C[C@H]3CC[C@H](N3)[C@@H]12` [Z1044, 4-((5S,5aS,6S,9R)-12-(((S)-2-(difluoromethylene)tetrahydro-1H-pyrrolizin-7a(5H)-yl)methoxy)-1-fluoro-5-(methyl-d3)-5a,6,7,8,9,10-hexahydro-5H-4-oxa-3,10a,11,13,14-pentaaza-6,9-methanonaphtho[1,8-ab]hepten-2-yl)-5-ethynylnaphthalen-2-amine], the 50% inhibitory concentration (IC50) in series [1] (Homo sapiens, 120 h) worked out at 0.53 nM; in series [3] (Homo sapiens, ASPC1, 120 h) it was 0.92 nM; in the series on AGS p-ERK (Homo sapiens), 0.34 nM.

Consider `C#Cc1c(F)ccc2cc(N)cc(-c3nc4c5c(nc(OC[C@]67CCCN6CC(F)(F)C7)nc5c3F)N3C[C@H]5CC[C@H](N5)[C@H]3[C@H](C)O4)c12` [Z739, 4-((5S,5aS,6S,9R)-12-(((R)-2,2-difluorotetrahydro-1H-pyrrolizin-7a(5H)-yl)methoxy)-1-fluoro-5-methyl-5a,6,7,8,9,10-hexahydro-5H-4-oxa-3,10a,11,13,14-pentaaza-6,9-methanonaphtho[1,8-ab]hepten-2-yl)-5-ethynylnaphthalen-2-amine], for which the IC50 in series [1] (Homo sapiens, 120 h) is 11 nM; in series [3] (Homo sapiens, ASPC1, 120 h), 6.16 nM; in the series with AGS p-ERK (Homo sapiens), 2.63 nM.

Regarding `[2H]C([2H])([2H])[C@@H]1Oc2nc(-c3cc(N)cc(Cl)c3C(F)(F)F)c(F)c3nc(OC[C@]45CCCN4CCC5=C)nc(c23)N2C[C@H]3CC[C@H](N3)[C@@H]12` [Z1060, 3-chloro-5-((5S,5aS,6S,9R)-1-fluoro-5-(methyl-d3)-12-(((R)-1-methylenetetrahydro-1H-pyrrolizin-7a(5H)-yl)methoxy)-5a,6,7,8,9,10-hexahydro-5H-4-oxo-3,10a,11,13,14-pentaaza-6,9-methanonaphtho[1,8-ab]hepten-2-yl)-4-(trifluoromethyl) aniline], the 50% inhibitory concentration (IC50) in series [1] (Homo sapiens, 120 h) stood at 0.19 nM; in series [3] (Homo sapiens, ASPC1, 120 h) it was 1.63 nM; in the series with AGS p-ERK (Homo sapiens), 0.72 nM.

As to `C#Cc1cccc2cc(N)cc(-c3nc4c5c(nc(OCC67CCCN6CCC7(F)F)nc5c3F)N3C[C@H]5CC[C@H](N5)[C@H]3[C@H](C)O4)c12` (stereo partly drawn) [Z741, 4-((5S,5aS,6S,9R)-12-((1,1-difluorotetrahydro-1H-pyrrolizin-7a(5H)-yl)methoxy)-1-fluoro-5-methyl-5a,6,7,8,9,10-hexahydro-5H-4-oxa-3,10a,11,13,14-pentaaza-6,9-methanonaphtho[1,8-ab]hepten-2-yl)-5-ethynylnaphthalen-2-amine], the concentration for half-maximal inhibition (IC50) in series [1] (Homo sapiens, 120 h) was found to be 19.2 nM; in series [3] (Homo sapiens, ASPC1, 120 h), 10.1 nM; in the series on AGS p-ERK (Homo sapiens), 4.06 nM.

Consider `C[C@@H]1Oc2nc(-c3cc(N)cc(Cl)c3C(F)(F)F)c(F)c3nc(OC[C@]45CCCN4CC(F)(F)C5)nc(c23)N2C[C@H]3CC[C@H](N3)[C@@H]12` [Z743, 3-chloro-5-((5S,5aS,6S,9R)-12-(((R)-2,2-difluorotetrahydro-1H-pyrrolizin-7a(5H)-yl)methoxy)-1-fluoro-5-methyl-5a,6,7,8,9,10-hexahydro-5H-4-oxa-3,10a,11,13,14-pentaaza-6,9-methanonaphtho[1,8-ab]hepten-2-yl)-4-(trifluoromethyl) aniline], for which the concentration for half-maximal inhibition (IC50) in series [1] (Homo sapiens, 120 h) was 1.95 nM; in series [3] (Homo sapiens, ASPC1, 120 h) it was 2.16 nM; with AGS p-ERK (Homo sapiens), 0.84 nM.

On to `C#Cc1cccc2cc(N)cc(-c3nc4c5c(nc(OCC67CCCN6CCC7=C(F)F)nc5c3F)N3C[C@H]5CC[C@H](N5)[C@H]3[C@H](C)O4)c12` (stereo partly drawn) [Z745, 4-((5S,5aS,6S,9R)-12-((1-(difluoromethylene)tetrahydro-1H-pyrrolizin-7a(5H)-yl)methoxy)-1-fluoro-5-methyl-5a,6,7,8,9,10-hexahydro-5H-4-oxa-3,10a,11,13,14-pentaaza-6,9-methanonaphtho[1,8-ab]hepten-2-yl)-5-ethynylnaphthalen-2-amine], for which the IC50 is 3.95 nM in series [1] (Homo sapiens, 120 h); 4.48 nM in series [3] (Homo sapiens, ASPC1, 120 h); 0.84 nM in the series on AGS p-ERK (Homo sapiens).

In the case of `Cc1cc(-c2nc3c4c(nc(OCC5(CN6CCOCC6)CC5)nc4c2F)N2C[C@H]4CC[C@H](N4)C2[C@H](C)O3)c(C)c(N)c1C1CC1` (stereo partly shown) [Z716], the IC50 in series [1] (Homo sapiens, 120 h) was 48.6 nM; in series [3] (Homo sapiens, ASPC1, 120 h), 89.2 nM; in the series on AGS p-ERK (Homo sapiens), 81.8 nM.

For the origin of these results see patent publication US20260109714A1, “PYRIMIDINE-FUSED RING COMPOUND, AND PREPARATION METHOD THEREFOR AND USE THEREOF” (GENFLEET THERAPEUTICS (SHANGHAI) INC., priority 2022, published 2026).
